From patent US7367988B1, “Use of electromagnetic fields in cancer and other therapies” (The Catholic University of America, priority 2000, dated 2008) come the findings set out here.

For the series, the system named is chick embryos.

The structures appear in SMILES notation. Like-named read-outs stand apart in the source and are kept apart here.

Procedure: I have investigated the effect of EM fields on the ability of taxol to create abnormalities in rapidly dividing cells. The model for this purpose was chick embryos. The embryos were incubated in the presence of a 60 Hz, 8 μT EM field. After 48 hours of continuous incubation, either dimethyl sulfoxide (DMSO) alone (controls) or Taxol dissolved in DMSO was injected. EM field incubation was continued for an additional 48 hours. At the end of 4 days incubation, embryos were visualized and classified as normal or abnormal (deformed, young, or dead).

As for `CC(=O)O[C@H]1C(=O)[C@@]2(C)[C@H]([C@H](OC(=O)c3ccccc3)[C@]3(O)C[C@H](OC(=O)[C@H](O)[C@@H](NC(=O)c4ccccc4)c4ccccc4)C(C)=C1C3(C)C)[C@]1(OC(C)=O)CO[C@@H]1C[C@@H]2O` [Taxol], the “Percent Abnormal Embryos” value was determined as 31.1% (Taxol + EM fields: 60 Hz, 8 μT for 48 hours before injection and an additional 48 hours after, embryos classified at 4 days); 19.3% (Taxol alone, dissolved in DMSO, injected after 48 hours of incubation, embryos classified normal or abnormal (deformed, young, or dead) at 4 days). The “Toxic effect of taxol with EM field exposure compared with taxol alone” value (in vivo) was “very significant increase in the toxic effect”.
